From ChEMBL document CHEMBL5463728, “Data for DCP probe BAY-6096” (2023) come the findings set out here.

Series [1] addresses Androgen receptor (Homo sapiens) (UniProt P10275). The conditions noted are these: Compound concentration 10.0 uM.
Series [2] concerns the target T1, 5-hydroxytryptamine receptor 1A (Homo sapiens) (UniProt P08908).
T1 sequence (whole entry): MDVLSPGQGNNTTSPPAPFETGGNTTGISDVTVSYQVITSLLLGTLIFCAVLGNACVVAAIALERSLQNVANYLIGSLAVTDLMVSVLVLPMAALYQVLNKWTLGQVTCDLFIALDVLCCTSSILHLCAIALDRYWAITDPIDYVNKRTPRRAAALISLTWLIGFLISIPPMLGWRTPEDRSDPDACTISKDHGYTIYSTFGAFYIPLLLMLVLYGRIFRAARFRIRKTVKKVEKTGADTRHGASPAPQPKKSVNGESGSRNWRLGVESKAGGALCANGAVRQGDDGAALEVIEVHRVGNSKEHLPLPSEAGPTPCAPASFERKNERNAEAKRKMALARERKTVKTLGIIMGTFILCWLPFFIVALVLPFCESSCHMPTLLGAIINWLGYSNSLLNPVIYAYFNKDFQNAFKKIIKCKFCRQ
The conditions noted are these: Compound concentration 10.0 uM.

For series [3], the target named is Gamma-aminobutyric acid type B receptor subunit 1 (Homo sapiens) (UniProt Q9UBS5). The conditions noted are these: Rattus norvegicus; Compound concentration 10.0 uM.
Series [4] deals with Beta-3 adrenergic receptor (Homo sapiens, UniProt P13945). The experiment in a line: Adrenoceptor reporter cell assay (ADRB3). The class given is functional.
Series [5] addresses Thromboxane-A synthase (Homo sapiens) (UniProt P24557). The experiment in a line: Inhibition of Thromboxane Synthase at compound concentration of 10.0 uM in the Eurofins-Panlabs enzyme assay (Eurofins_assay_194020). Set-up: substrate with concentration. The conditions noted are these: Compound concentration 10.0 uM.
In series [6] the target is B2 bradykinin receptor (Homo sapiens) (UniProt P30411). The conditions noted are these: Compound concentration 10.0 uM.
Series [7] addresses Type-1 angiotensin II receptor (Homo sapiens) (UniProt P30556). The conditions noted are these: Compound concentration 10.0 uM.
In series [8] the target is Polyunsaturated fatty acid lipoxygenase ALOX15 (Homo sapiens) (UniProt P16050). The series can be described thus: Inhibition of Lipoxygenase 15-LO at compound concentration of 10.0 uM in the Eurofins-Panlabs enzyme assay (Eurofins_assay_199017). The conditions noted are these: Compound concentration 10.0 uM.
The species named for series [9] is Rattus norvegicus. The conditions noted are these: Compound concentration 10.0 uM.
The target in series [10] is T2, Muscarinic acetylcholine receptor M4 (Homo sapiens) (UniProt P08173).
T2 sequence (whole entry): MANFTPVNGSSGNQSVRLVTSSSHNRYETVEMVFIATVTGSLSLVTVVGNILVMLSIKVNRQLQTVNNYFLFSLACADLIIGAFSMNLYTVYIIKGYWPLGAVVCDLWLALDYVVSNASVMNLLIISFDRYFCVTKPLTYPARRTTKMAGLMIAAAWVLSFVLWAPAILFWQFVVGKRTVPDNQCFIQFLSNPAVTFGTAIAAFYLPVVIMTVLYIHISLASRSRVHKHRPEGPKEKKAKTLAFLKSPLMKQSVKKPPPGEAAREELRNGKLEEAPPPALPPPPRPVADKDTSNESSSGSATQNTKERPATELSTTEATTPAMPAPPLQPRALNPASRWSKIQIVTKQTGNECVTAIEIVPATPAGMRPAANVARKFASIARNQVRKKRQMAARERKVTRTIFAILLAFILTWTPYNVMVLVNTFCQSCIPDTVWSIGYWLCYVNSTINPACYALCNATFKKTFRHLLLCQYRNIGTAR
The conditions noted are these: Compound concentration 10.0 uM.

Another series is filed under the species Homo sapiens. The series can be described thus: Inhibition of Nicotinic Acetylcholine at compound concentration of 10.0 uM in the Eurofins-Panlabs radioligand binding assay (Eurofins_assay_258590). The class given is protein-complex assay. The conditions noted are these: Compound concentration 10.0 uM.
Series [11] deals with Sodium-dependent serotonin transporter (Homo sapiens) (UniProt P31645). The conditions noted are these: Compound concentration 10.0 uM.
Series [12] addresses Progesterone receptor (Homo sapiens) (UniProt P06401). The conditions noted are these: Compound concentration 10.0 uM.
Series [13] deals with cGMP-specific 3',5'-cyclic phosphodiesterase (Homo sapiens) (UniProt O76074). The conditions noted are these: Compound concentration 10.0 uM.
Series [14] concerns the target Prostaglandin G/H synthase 1 (Homo sapiens) (UniProt P23219). The experiment in a line: Inhibition of Cyclooxygenase COX-1 at compound concentration of 10.0 uM in the Eurofins-Panlabs enzyme assay (Eurofins_assay_116020). The conditions noted are these: Compound concentration 10.0 uM.
In series [15] the target is 5-hydroxytryptamine receptor 2A (Homo sapiens) (UniProt P28223). The conditions noted are these: Compound concentration 10.0 uM.
The target in series [16] is D(1A) dopamine receptor (Homo sapiens) (UniProt P21728). The conditions noted are these: Compound concentration 10.0 uM.
Series [17] addresses Alpha-1D adrenergic receptor (Homo sapiens, UniProt P25100). The series can be described thus: Adrenoceptor reporter cell assay (ADRA1D). Format: functional.
The species entered for series [18] is Rattus norvegicus. The conditions noted are these: Compound concentration 10.0 uM. This is another data set of the same source.
The species entered for the next series is Sus scrofa. The experiment in a line: Inhibition of ATPase, Na+/K+, Heart at compound concentration of 10.0 uM in the Eurofins-Panlabs enzyme assay (Eurofins_assay_107710). Set-up: substrate with concentration. The conditions noted are these: Compound concentration 10.0 uM.
Series [19] concerns the target Estrogen receptor (Homo sapiens) (UniProt P03372). The conditions noted are these: Compound concentration 10.0 uM.
For series [20], the target named is 5-hydroxytryptamine receptor 2B (Homo sapiens) (UniProt P41595). The conditions noted are these: Compound concentration 10.0 uM.
The target in series [21] is GABA-A receptor; anion channel (Rattus norvegicus) (UniProt O09028+P15431+P18506+P18508+P19969+P20236+P23574+P23576+P28471+P28473+P30191+P62813+P63079+P63138+Q91ZM7+Q9ES14). The conditions noted are these: Compound concentration 10.0 uM.
Series [22] addresses Beta-2 adrenergic receptor (Homo sapiens, UniProt P07550). The conditions noted are these: Compound concentration 10.0 uM.
Series [23] addresses Histamine H3 receptor (Homo sapiens) (UniProt Q9Y5N1). The conditions noted are these: Compound concentration 10.0 uM.
Series [24] concerns the target Monoamine oxidase B (MAO-B) (Homo sapiens, UniProt P27338). The experiment in a line: Inhibition of Monoamine Oxidase MAO-B at compound concentration of 10.0 uM in the Eurofins-Panlabs enzyme assay (Eurofins_assay_140120). Set-up: substrate with concentration 50 uM Kynuramine, incubation time 60 min, incubation temperature 37 C. The conditions noted are these: recombinant human MAO-B expressed in insect Hi5 cells, probe Kynuramine (50 uM), compound concentration 10 uM.

Series [25] addresses Glucocorticoid receptor (Homo sapiens) (UniProt P04150). The conditions noted are these: Compound concentration 10.0 uM.
In series [26] the target is Alpha-2B adrenergic receptor (Homo sapiens) (UniProt P18089). The conditions noted are these: filed as antagonist, Compound concentration 10.0 uM.
The target in series [27] is Alpha-2B adrenergic receptor (Canis lupus familiaris, UniProt Q2MDQ0). The series can be described thus: Cell based assay dog (ADRA2B). The class given is functional.
Series [28] addresses D(1B) dopamine receptor (Homo sapiens) (UniProt P21918). The conditions noted are these: Compound concentration 10.0 uM.

Sequence of Alpha-2B adrenergic receptor (Homo sapiens) (P18089 whole entry): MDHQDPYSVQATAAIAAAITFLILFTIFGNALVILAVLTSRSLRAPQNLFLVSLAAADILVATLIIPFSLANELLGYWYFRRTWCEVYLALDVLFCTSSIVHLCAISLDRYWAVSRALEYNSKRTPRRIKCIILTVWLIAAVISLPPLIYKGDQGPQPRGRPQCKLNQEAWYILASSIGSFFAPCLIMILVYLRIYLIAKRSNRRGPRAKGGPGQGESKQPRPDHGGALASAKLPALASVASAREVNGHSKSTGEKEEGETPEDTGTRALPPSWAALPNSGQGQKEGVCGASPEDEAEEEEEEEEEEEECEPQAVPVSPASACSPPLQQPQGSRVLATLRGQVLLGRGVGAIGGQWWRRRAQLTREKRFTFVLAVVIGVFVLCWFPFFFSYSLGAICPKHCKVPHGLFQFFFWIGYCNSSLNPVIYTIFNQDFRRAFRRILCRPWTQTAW
Sequence of D(1B) dopamine receptor (Homo sapiens) (P21918 whole entry): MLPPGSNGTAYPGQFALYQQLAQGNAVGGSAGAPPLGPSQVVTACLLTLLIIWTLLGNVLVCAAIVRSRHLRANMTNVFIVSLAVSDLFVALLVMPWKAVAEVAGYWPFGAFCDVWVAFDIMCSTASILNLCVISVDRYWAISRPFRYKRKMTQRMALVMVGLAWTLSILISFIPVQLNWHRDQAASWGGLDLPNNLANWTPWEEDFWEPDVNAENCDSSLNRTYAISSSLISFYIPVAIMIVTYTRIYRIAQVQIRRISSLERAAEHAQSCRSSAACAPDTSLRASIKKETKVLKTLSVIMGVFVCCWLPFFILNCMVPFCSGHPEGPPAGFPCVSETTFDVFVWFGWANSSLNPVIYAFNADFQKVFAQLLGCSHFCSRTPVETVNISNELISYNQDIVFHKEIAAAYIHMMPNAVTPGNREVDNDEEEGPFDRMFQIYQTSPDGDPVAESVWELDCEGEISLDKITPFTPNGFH
Sequence of Beta-2 adrenergic receptor (P07550 whole entry, looked up): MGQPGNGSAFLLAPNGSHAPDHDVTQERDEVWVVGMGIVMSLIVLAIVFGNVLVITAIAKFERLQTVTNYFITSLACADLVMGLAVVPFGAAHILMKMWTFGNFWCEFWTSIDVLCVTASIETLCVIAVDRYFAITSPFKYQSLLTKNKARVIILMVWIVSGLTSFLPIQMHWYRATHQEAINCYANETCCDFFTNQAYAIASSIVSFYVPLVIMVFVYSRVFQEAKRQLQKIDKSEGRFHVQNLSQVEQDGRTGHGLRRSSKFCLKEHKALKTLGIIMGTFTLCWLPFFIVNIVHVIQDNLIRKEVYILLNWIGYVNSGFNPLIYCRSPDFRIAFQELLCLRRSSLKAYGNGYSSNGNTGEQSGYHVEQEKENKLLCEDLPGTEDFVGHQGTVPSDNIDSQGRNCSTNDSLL
Sequence of Polyunsaturated fatty acid lipoxygenase ALOX15 (Homo sapiens) (P16050 whole entry): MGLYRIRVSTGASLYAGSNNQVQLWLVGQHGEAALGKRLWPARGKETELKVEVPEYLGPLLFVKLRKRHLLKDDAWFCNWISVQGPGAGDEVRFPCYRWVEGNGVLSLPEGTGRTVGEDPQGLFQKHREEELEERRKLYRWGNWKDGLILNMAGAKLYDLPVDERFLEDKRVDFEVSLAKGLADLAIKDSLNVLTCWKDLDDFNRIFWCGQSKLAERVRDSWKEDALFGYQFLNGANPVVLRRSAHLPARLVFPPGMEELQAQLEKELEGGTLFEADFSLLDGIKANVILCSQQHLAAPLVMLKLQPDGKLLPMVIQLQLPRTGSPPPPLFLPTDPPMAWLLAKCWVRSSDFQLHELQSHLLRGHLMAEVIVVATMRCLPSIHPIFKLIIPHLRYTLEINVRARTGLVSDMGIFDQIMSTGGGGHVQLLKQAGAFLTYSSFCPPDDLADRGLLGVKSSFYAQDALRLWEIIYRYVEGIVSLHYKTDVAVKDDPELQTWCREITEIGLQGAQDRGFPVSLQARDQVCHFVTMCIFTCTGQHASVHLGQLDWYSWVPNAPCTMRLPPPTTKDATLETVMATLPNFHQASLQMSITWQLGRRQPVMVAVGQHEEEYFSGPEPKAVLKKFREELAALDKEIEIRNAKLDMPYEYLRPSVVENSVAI
Sequence of 5-hydroxytryptamine receptor 2B (Homo sapiens) (P41595 whole entry): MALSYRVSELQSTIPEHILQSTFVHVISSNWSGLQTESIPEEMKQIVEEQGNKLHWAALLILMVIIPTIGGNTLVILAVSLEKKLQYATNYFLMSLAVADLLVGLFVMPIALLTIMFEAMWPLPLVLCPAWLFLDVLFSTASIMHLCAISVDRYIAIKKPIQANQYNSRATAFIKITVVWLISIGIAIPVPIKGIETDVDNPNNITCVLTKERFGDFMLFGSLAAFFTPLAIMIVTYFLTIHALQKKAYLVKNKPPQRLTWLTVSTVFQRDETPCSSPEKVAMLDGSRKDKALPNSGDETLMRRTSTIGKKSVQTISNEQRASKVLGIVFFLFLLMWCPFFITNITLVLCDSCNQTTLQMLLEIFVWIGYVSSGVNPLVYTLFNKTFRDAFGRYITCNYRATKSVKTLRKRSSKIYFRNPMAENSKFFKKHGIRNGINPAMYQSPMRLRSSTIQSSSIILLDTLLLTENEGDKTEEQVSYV
Sequence of Monoamine oxidase B (MAO-B) (P27338 whole entry): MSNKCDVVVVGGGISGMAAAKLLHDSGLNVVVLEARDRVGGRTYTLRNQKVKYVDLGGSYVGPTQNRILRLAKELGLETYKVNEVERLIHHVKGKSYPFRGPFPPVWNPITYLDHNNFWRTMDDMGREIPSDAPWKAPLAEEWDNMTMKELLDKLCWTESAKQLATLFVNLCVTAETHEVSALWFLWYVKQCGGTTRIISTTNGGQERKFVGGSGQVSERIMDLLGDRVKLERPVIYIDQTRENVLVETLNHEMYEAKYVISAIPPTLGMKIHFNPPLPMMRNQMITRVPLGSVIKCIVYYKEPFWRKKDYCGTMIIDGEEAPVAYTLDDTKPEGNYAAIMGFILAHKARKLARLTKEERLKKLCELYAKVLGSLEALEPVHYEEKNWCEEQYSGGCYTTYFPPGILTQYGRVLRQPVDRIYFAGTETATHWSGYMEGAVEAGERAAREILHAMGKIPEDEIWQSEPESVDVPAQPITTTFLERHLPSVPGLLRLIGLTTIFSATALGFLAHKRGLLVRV
Sequence of B2 bradykinin receptor (Homo sapiens) (P30411 whole entry): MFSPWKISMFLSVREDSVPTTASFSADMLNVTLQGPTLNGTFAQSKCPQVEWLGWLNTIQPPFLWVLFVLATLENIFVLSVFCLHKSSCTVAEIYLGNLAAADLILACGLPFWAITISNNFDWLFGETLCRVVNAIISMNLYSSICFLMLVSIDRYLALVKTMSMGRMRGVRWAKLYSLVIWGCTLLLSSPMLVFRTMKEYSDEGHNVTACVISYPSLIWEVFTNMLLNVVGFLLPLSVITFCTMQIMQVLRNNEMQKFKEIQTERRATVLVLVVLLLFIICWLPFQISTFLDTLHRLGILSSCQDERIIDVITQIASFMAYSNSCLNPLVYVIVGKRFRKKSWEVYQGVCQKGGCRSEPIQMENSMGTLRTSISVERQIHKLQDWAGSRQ
Sequence of Sodium-dependent serotonin transporter (Homo sapiens) (P31645 whole entry, looked up): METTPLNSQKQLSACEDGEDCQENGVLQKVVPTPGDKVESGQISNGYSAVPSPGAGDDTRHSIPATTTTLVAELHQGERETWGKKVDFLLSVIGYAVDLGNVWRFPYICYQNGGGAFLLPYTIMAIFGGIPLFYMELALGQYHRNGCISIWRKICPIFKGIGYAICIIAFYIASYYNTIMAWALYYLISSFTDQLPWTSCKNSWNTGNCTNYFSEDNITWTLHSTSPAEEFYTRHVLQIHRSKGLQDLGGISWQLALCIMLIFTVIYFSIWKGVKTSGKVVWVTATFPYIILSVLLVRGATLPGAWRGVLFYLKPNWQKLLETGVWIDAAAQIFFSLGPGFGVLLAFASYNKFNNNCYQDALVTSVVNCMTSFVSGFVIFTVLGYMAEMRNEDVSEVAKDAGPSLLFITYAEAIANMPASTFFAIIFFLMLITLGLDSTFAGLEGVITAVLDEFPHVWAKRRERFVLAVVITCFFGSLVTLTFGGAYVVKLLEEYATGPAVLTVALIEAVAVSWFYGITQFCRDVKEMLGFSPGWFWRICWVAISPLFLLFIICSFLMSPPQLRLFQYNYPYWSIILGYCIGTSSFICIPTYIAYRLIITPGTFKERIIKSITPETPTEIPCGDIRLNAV
Sequence of Gamma-aminobutyric acid type B receptor subunit 1 (Homo sapiens) (Q9UBS5 whole entry): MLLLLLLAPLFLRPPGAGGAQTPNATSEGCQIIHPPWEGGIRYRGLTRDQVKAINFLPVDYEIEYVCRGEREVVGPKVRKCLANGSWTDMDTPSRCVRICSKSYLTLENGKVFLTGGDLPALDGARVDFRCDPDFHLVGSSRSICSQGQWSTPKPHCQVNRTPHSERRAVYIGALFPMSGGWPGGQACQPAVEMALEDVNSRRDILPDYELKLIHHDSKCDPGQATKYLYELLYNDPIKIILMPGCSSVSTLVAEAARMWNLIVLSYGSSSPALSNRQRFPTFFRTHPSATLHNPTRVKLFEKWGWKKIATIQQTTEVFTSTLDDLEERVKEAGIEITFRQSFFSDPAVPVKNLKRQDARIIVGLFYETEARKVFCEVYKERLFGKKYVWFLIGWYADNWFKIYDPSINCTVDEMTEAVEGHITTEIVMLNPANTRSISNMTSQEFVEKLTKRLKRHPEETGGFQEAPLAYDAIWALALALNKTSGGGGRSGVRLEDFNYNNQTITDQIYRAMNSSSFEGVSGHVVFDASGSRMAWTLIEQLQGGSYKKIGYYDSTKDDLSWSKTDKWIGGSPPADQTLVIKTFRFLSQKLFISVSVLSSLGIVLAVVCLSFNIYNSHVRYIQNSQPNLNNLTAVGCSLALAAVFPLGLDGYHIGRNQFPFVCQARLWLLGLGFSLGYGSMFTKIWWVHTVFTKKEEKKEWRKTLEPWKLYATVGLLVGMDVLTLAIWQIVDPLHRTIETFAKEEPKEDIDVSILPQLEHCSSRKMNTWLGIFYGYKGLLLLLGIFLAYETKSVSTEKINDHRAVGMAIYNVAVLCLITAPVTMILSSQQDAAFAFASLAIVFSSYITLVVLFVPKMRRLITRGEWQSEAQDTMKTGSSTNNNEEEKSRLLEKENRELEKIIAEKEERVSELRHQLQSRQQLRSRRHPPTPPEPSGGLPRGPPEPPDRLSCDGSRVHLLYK

`CNc1cc[n+](CCNC(=O)c2ccn3c(-c4c(C)noc4C)cnc3c2)cc1`: the inhibition (in general, the relative decrease from the control value, in per cent) is -2.7% in [1]; 25.3% in series [2]; 2.1% in [3]; -8.2% in series [5]; -1.8% in series [6]; 5% in series [7]. Further, the inhibition in series [8] is -0.5%; in the series filed under Rattus norvegicus [9], 4.24%; in series [10], 3.5%; in the series filed under Homo sapiens, 9.4%; in [11] it was 0.4%; in series [12], 11.8%. The inhibition in [13] was 3.6%; in series [14], -6.3%; in [15], 1%; in [16], -6.7%; in the series listed under Rattus norvegicus [18], 0.4%; in the series listed under Sus scrofa it was -2.1%. Besides, the inhibition in series [19] is 6.2%; in series [20], 0%; in series [21], -3.7%; in [22], -4.49%; in [23], 1.6%; in series [25], 1.3%. Besides, the IC50 in series [4] and in series [17] was > 10 µM (not active) each time. In addition, the inhibition at 60 min, 10 µM in series [24] is on record as 6% (not active).
Regarding `Cc1noc(C)c1-c1cnc2cc(C(=O)NCCC[n+]3ccc(N(C)C)cc3)ccn12`, the values for the inhibition in series [26] and in series [28] were 54.6% and 0.03%, respectively. Also, in series [27], the half-inhibitory concentration (IC50) (commonly the concentration that gives 50% inhibition) is given as 10 µM (not active).
